Data reported in patent US12655413B2, “Fragmented GRS polypeptide and variant thereof, and use thereof” (CUREBIO THERAPEUTICS, priority 2018, dated 2026).
Residues, ends and D or L forms follow the SMILES beside them.

Experiments:
[1] = test system: SN12C (CDH6 positive renal cancer cell); test: Comparison of in vitro cancer cell apoptotic activity among the polypeptides (FIG. 2); format: cell-based; settings: 1 μg or 2 μg of polypeptide
Experimental: The polypeptide fragments were assayed for cancer cell apoptotic activity. Concrete experiment procedures were as follows: H460, HCT116, MCF7, HeLa, SN12C or RENCA cells were each seeded at a density 5,000 cells/mL into 96-well plates (Corning, New York, USA) and incubated for 24 hours with 100 nM of each of the polypeptide fragments and the full-length GRS protein. Then, each sample was treated for 2 hours with 10 μl of CCK8 reagent (Dojindo Molecular Technologies Inc. Kumamoto, Japan) before absorbance was read at 570 nm on a microplate reader (TECAN, Mannedorf, Swiss).
Comparison was made of cancer cell apoptotic activity among the polypeptide constructs of Examples 1-1 and 1-2. Each polypeptide was used in an amount of 1 μg or 2 μg, and the assay was performed in the same manner as in Example 1-1.

[2] = test system: SN12C (CDH6 positive) cells; test: In vivo anticancer activity, intra-tumor injection, SN12C xenograft; parameters: species or system BALB/c nude mice; settings: 20 μg into tumors on day 5 and 7; monitored 21 days; FIGS. 6b to 6d
Experimental: FIG. 6a is an experimental scheme for evaluating the ability of GRS, GRS-DP, and representative fragments derived therefrom (GRS-DP-B, or GRS-DP-A cyclic) to induce tumor regression in vivo by intra-tumor injection. Briefly, SN12C (CDH6 positive) cells were subcutaneously injected into BALB/c nude mice and then grown for 5 days to an average tumor size of 100 mm^3. On day 5 and 7, PBS or test materials were each injected at a dose of 20 μg into tumors (n=5 animals/group). Tumor volumes were calculated according to “maximum diameter×minimum diameter^2×0.52”.
Experimental procedures of an assay for in vivo anticancer activity are schematically represented in FIG. 6a. Briefly, 1×10^7 SN12C (CDH6 positive) cells were subcutaneously injected to the right flank of female BALB/c 8 weeks old (Dooyeol Biotech Co. Ltd, Seocho-gu, Seoul) and then grown for 5 days to an average tumor size of 100 mm^3. On day 5 and 7, PBS (control) or test materials (including a control) were each injected at a dose of 20 μg into tumors (n=5 animals/group). After monitoring the tumors for 21 days, the mice were sacrificed on day 21 and the tumors were excised. Tumor volumes were calculated according to “maximum diameter×minimum diameter^2×0.52”.

[3] = test system: SN12C (CDH6 positive) cells; test: In vivo anticancer activity, intravenous injection, SN12C xenograft; parameters: species or system BALB/c nude mice; settings: 5 MPK intravenously on day 5 and 7; monitored 21 days; FIGS. 7a to 7c
Description: FIG. 7a is an image of tumors excised from experimental animals in each test group sacrificed on day 21 after xenotransplantation of tumor cells, showing results of evaluating the ability of GRS, GRS-DP, and representative fragments derived therefrom (GRS-DP-B, or GRS-DP-A cyclic) to induce tumor regression in vivo by intravenous injection. Briefly, SN12C (CDH6 positive) cells were subcutaneously injected into BALB/c nude mice and then grown for 5 days to an average tumor size of 100 mm^3. On day 5 and 7, PBS or test materials were each intravenously injected at a dose of 5 MPK (n=5 animals/group). Tumor volumes were calculated according to “maximum diameter×minimum diameter^2×0.52”.
Experimental procedures of an assay for in vivo anticancer activity are schematically represented in FIG. 6a. Briefly, 1×10^7 SN12C (CDH6 positive) cells were subcutaneously injected to the right flank of female BALB/c 8 weeks old (Dooyeol Biotech Co. Ltd, Seocho-gu, Seoul) and then grown for 5 days to an average tumor size of 100 mm^3. On day 5 and 7, PBS (control) or test materials (including a control) were each intravenously injected at a dose of 5 MPK (n=5 animals/group). After monitoring the tumors for 21 days, the mice were sacrificed on day 21 and the tumors were excised. Tumor volumes were calculated according to “maximum diameter×minimum diameter^2×0.52”.

B16F10 cells = test: In vivo tumor targeting of Alexa fluor 488-labeled polypeptides, intravenous injection; parameters: species or system C57BL/6 mice; settings: 1 mg/kg intravenously, tumors excised after 24 hours; compared to full-length GRS protein and GRS-DP; FIGS. 8a, 8b
Description: FIG. 8a is an image of tumors excised from test groups, showing comparison of abilities of GRS, GRS-DP, and representative fragments derived therefrom (GRS-DP-B or GRS-DP-A cyclic) to specifically target cancer cells in terms of fluorescence labeling intensity. In the experiment, B16F10 cells were subcutaneously injected into C57BL/6 mice and then grown for 14 days. On day 14, PBS or fluorescence-labeled test materials were each intravenously injected at a dose of 1 MPK, and tumors were excised 24 hours after injection.
Thus, the ability of GRS-DP-B to target tumors in practice was evaluated when it was administered in a systemic manner. For this, GRS-DP-B, GRS-DP-A cyclic, GRS-DP, and full-length GRS protein were assayed for tumor targeting ability in vivo. Briefly, B16F10 cells (5×10^6 cells) were subcutaneously injected into the right flank of each of C57BL/6 mice 8 weeks old. On day 14, full-length GRS and the polypeptides of the present invention, each labeled with Alexa fluor 488, were intravenously injected at a dose of 1 mg/kg mouse weight, and the tumors were excised after 24 hours. Fluorescent signals of tumors were measured using IVIS Lumina Series III (PerkinElmer, Massachusetts, USA) to analyze regions of interest (ROI)

[4] = test system: CDH6+/pERK+ cells (H460, HeLa, SN12C) or negative cells (RENCA, MCF7); test: CDH6-dependency: cell viability of CDH6/pERK positive or negative cells; format: cell-based; settings: GRS-DP 100 nM (FIG. 5a legend: 200 nM); CDH6 positive vs negative cells
[5] = test system: pERK in SN12C (CDH6 positive) cells or RENCA (CDH6 negative) cells; test: Dephosphorylation of pERK by western blotting; format: cell-based; settings: 100 nM or 200 nM, 1 hour; SN12C vs RENCA; FIGS. 5b, 5c
Experimental: To examine whether the polypeptides of the present invention dephosphorylates pERK by binding to CDH6 or not, SN12C (CDH6 positive) cells or RENCA (CDH6 negative) cells were treated with the polypeptides of the present invention (typically, 100 nM or 200 nM of GRS-DP) and dephosphorylation of pERK was analyzed. In this regard, full-length GRS 100 nM was used as a positive control. In brief, the cells were […] for 1 hour with full-length GRS or GRS-DP, washed twice with chilled PBS, and lysed in a lysis buffer (150 mM NaCl, 2 mM EDTA, 1% Triton X-100, 1% sodium deoxycholate, 10 mM NaF, 1 mM orthovandadate, 10% glycerol, protease cocktail). Thirty micrograms of each protein were run on SDS/PAGE, followed by western blotting with an ERK antibody purchased from Cell Signaling Technology (Danvers, MA, USA) and an anti-cadherin-6 (K-cadherin) antibody purchased from Abcam (Cambridge, UK).

[6] = target: T1, cadherin6 (CDH6)-fc fusion protein (Homo sapiens, UniProt P55285); test: Affinity for CDH6 by surface plasmon resonance (SPR); format: binding; settings: CDH6 immobilized on carboxymethyl dextran chip
T1 construct: Fc
Experimental: Comparison was made of the affinity of the peptides of the present invention for CDH6. The binding of GRS and GRS-derived peptides to cadherin6 (CDH6)-fc fusion protein was analyzed by surface plasmon resonance (SPR) using SR7500DC, Reichert Analytical Instrument (Depew NY). CDH6 was immobilized on a [CMDH chip]carboxymethyl dextran sensor chip via a free carboxyl group on the surface thereof, followed by injecting 0.1M 1-ethyl-3-(3-dimethylaminopropyl) carbodiimide hydrochloride and 0.05M N-hydroxysuccinimide at a flow speed of 5 μL/min to give an activated succinimide ester-modified surface. Various concentrations of GRS and GRS-derived peptides were injected at a flow speed of 30 μL/min into phosphate-based saline, after which a mobile-phase buffer was injected at the same flow speed to determine a dissociation rate. Data was analyzed using Software Scrubber 2.0 (Biological Software, Australia).

T1 sequence (P55285 with tags, fused parts or gaps limits assumed): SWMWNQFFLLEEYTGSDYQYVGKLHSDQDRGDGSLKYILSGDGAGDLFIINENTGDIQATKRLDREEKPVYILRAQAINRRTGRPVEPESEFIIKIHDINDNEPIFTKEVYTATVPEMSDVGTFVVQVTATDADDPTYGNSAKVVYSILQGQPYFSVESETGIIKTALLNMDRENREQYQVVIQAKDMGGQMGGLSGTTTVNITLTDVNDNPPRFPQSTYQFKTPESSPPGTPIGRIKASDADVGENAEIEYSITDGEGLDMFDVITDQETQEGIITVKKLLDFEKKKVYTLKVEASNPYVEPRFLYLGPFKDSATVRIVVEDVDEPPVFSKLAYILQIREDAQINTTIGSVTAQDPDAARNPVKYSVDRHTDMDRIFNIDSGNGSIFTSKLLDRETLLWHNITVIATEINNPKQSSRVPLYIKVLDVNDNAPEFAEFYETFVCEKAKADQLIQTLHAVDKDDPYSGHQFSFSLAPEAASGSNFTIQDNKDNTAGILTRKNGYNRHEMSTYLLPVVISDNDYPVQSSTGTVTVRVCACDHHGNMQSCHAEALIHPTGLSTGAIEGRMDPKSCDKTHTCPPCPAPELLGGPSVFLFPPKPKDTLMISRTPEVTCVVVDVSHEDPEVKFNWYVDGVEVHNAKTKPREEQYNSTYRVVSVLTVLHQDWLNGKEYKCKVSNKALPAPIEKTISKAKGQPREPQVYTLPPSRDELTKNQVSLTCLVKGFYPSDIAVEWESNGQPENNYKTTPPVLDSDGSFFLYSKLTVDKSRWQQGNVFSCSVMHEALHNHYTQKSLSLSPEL

Row | Kd [6] [nM] | Compound | cancer cell apoptotic effect [1] | sizes (volumes) and weights of tumors [2] | sizes (volumes) and weights of tumors [3] | tumor-specific target ability (fluorescence ROI of excised tumors) (B16F10 cells) | cell viability [4] | dephosphorylation of pERK [5]
1 | – | CSCC[C@H](N)C(=O)N[C@@H](Cc1ccc(O)cc1)C(=O)N[C@H](C(=O)N[C@H](C(=O)N[C@@H](Cc1ccccc1)C(=O)N[C@@H](CCC(=O)O)C(=O)N[C@@H](Cc1c[nH]cn1)C(=O)N[C@H](C(=O)N[C@@H](Cc1ccccc1)C(=O)N[C@@H](Cc1c[nH]cn1)C(=O)N[C@H](C(=O)N[C@@H](CCCNC(=N)N)C(=O)N[C@@H](CCC(=O)O)C(=O)NCC(=O)N[C@@H](CC(=O)O)C(=O)N[C@@H](CCC(=O)O)C(=O)N[C@@H](CCC(N)=O)C(=O)N[C@@H](CCCNC(=N)N)C(=O)N[C@H](C(=O)N[C@@H](Cc1ccccc1)C(=O)N[C@@H](Cc1ccccc1)C(=O)N[C@@H](CO)C(=O)N[C@@H](Cc1ccccc1)C(=O)N1CCC[C@H]1C(=O)N[C@@H](C)C(=O)O)[C@@H](C)O)C(C)C)[C@@H](C)O)C(C)C)[C@@H](C)O [GRS-DP-A linear] (H-MYTVFEHTFHVREGDEQRTFFSFPA-OH; N-terminus and C-terminus assumed) | remarkably | – | – | – | – | –
2 | – | GRS-DP-B: truncated GRS fragment, positions 531-538 on SEQ ID NO: 1, 8 aa (SEQ ID NO: 2) (MYTVFEHT; GRS-DP-B(GRS 531-538)) | remarkably | most remarkably reduced | most remarkably reduced | remarkably high tumor-specific target ability | – | –
3 | – | GRS-DP-C: truncated GRS fragment, positions 538-552 on SEQ ID NO: 1, 15 aa (SEQ ID NO: 12) (TFHVREGDEQRTFFS; GRS-DP-C (GRS 538-552)) | not detected | – | – | – | – | –
4 | 83.9 | MYTVFEHTFHVREGDEQRTFFSFPAVVAPFKCSVLPLSQNQEFMPFVKELSEALTRHGVSHKVDDSSGSI [GRS-DP] | remarkably | – | – | – | reduced the cell viability of CDH6-positive cells only | inducing the CDH6-dependent dephosphorylation of pERK
